Results on four molecules are retold here after patent US11866502B2, “Anti-FGFR2 antibodies and methods of use thereof” (Regeneron Pharmaceuticals, Inc., priority 2020, dated 2024).

Where two headings read alike, the source gives them in different places.

Test [1] has as its system IM-9 cells. The experiment in a line: In vitro cytotoxicity assay (CellTiter-Glo 2.0), IM-9 cells. It is filed as cell-based, human. The note with it: for Max % Kill: IM-9, up to 20 nM. As for the experimental part:
(§1) To test the ability of anti-FGFR2 antibody drug conjugates (ADCs) disclosed herein to kill human cell lines, an in vitro cytotoxicity assay was performed. In vitro cytotoxicity of the anti-FGFR2 ADCs, isotype control ADCs, and reference free payloads were evaluated using the CellTiter-Glo 2.0 Assay Kit (Promega, Cat #G9243), in which the quantity of ATP present is used to determine the number of viable cells in culture. The payloads Maytansinoid 1A, Maytansinoid 1A* (a cell permeable equivalent of Maytansinoid 1A), and Tubulysin 1A were tested as free payloads, and the unconjugated antibodies, including comparator antibodies, were used as controls.
(§2) Five-fold serial dilutions of anti-FGFR2 ADCs or isotype control ADCs were prepared in dilution media (Optimem+0.1% BSA) and added to cells at final concentrations ranging from 20 nM to 0.051 pM (concentrations were corrected for the DAR and are dosed based on the effective payload concentration). Five-fold serial dilutions of free payloads were prepared in 100% DMSO, transferred to fresh dilution media, and then added to the cells at a final constant DMSO concentration of 0.2% and final payload concentrations ranging from 20 nM to 0.051 pM. The last well in each dilution series served as an untreated control and included media alone or media plus 0.2% DMSO and was plotted as a continuation of the 5-fold serial dilution. Six days later, 100 uL of CellTiter Glo 2.0 was added to each well, plates were mixed for 2 minutes on an orbital shaker, and plates were incubated at room temperature for 10 minutes. Relative light units (RLUs) were measured on an Envision luminometer (Perkin Elmer) and cell viability was expressed as a percentage of the untreated (100% viable) cells. IC50 values were determined using a four-parameter logistic equation over a 10-point dose response curve (GraphPad Prism). The maximum % kill was also determined for each test article as follows: 100−minimum percent viability.

The test system of test [2] is MFM-223 cells. As to the kind of experiment: In vitro cytotoxicity assay (CellTiter-Glo 2.0), MFM-223 cells. It is filed as cell-based, human. Conditions: for Max % Kill: MFM-223, up to 20 nM. As for the experimental part: as §1, §2
In general terms: ATP-based viability assays read luminescence as a measure of living cells.

The subject of test [3] is NCI-H716 cells. As to the kind of experiment: In vitro cytotoxicity assay (CellTiter-Glo 2.0), NCI-H716 cells. It is filed as cell-based, human. Conditions: for Max % Kill: NCI-H716, up to 20 nM. As for the experimental part: as §1, §2
Test [4] deals with SNU-16 cells. The experiment in a line: In vitro cytotoxicity assay (CellTiter-Glo 2.0), SNU-16 cells. It is filed as cell-based, human. Conditions: for Max % Kill: SNU-16, up to 20 nM. As for the experimental part: as §1, §2
Test [5] concerns SNU-16, MFM-223, NCI-H716, or IM-9 cells. As to the kind of experiment: In vitro cytotoxicity assay, several cell lines. It is filed as cell-based, human. The note with it: for IC50: Homo sapiens, read-out: IC50 values. As for the experimental part: as §1
as §2, with “Five-fold” for “Five-fold serial dilutions of anti-FGFR2 ADCs or isotype control ADCs were prepared in dilution media (Optimem+0.1% BSA) and added to cells at final concentrations ranging from 20 nM to 0.051 pM (concentrations were corrected for the DAR and are dosed based on the effective payload concentration). Five-fold”
A comparator anti-FGFR2 ADC that recognizes both FGFR2b and FGFR2c and is conjugated to an auristatin payload (Comp2-BAY-LP) was also tested for cytotoxicity.

Test [6] deals with SNU-16 cells. As to the kind of experiment: In vitro bystander assay, SNU-16 monoculture. It is filed as cell-based, human. As for the experimental part: as §2, with “The last well in each dilution series served as an untreated control and included media alone or media plus 0.2% DMSO and was plotted as a continuation of the 5-fold serial dilution. Six days later, 100 uL of CellTiter Glo 2.0 was added to each well, plates were mixed for 2 minutes on an orbital shaker, and plates were incubated at room temperature for 10 minutes.” left out
(§3) The ability of the anti-FGFR2 ADCs to induce cytotoxicity in FGFR2 negative cells through release of the payload in FGFR2 positive cells, i.e., bystander activity, was also assessed. […] Cytotoxicity was assessed as described previously for tumor cell lines except that three-fold serial dilutions were performed for all test articles with concentrations ranging from 100 nM to 15.2 pM, and cells were incubated with test articles for 5 days.

For test [7], the system named is NALM-6 cells. As to the kind of experiment: In vitro bystander assay, NALM-6 monoculture. It is filed as cell-based. As for the experimental part:
as §2, with “The last well in each dilution series served as an untreated control and included media alone or media plus 0.2% DMSO and was plotted as a continuation of the 5-fold serial dilution. Six days later, 100 uL of CellTiter Glo 2.0 was added to each well, plates were mixed for 2 minutes on an orbital shaker, and plates were incubated at room temperature for 10 minutes.” left out
as §3

Test [8] concerns SNU-16 + NALM-6 Cells. The experiment in a line: In vitro bystander assay, SNU-16 + NALM-6 coculture (1:1). It is filed as cell-based. As for the experimental part: as §2, with “The last well in each dilution series served as an untreated control and included media alone or media plus 0.2% DMSO and was plotted as a continuation of the 5-fold serial dilution. Six days later, 100 uL of CellTiter Glo 2.0 was added to each well, plates were mixed for 2 minutes on an orbital shaker, and plates were incubated at room temperature for 10 minutes.” left out
as §3

The subject of test [9] is FGFR2 positive tumors. Conditions: cited from earlier work.
For test [10], the target named is T1, hFGFR2b.mmh (Homo sapiens, UniProt P21802).
T1 construct: myc-myc-hexahistidine (MMH) (C); made in house
T1 sequence (P21802 with tags, fused parts or gaps isoform P21802-3): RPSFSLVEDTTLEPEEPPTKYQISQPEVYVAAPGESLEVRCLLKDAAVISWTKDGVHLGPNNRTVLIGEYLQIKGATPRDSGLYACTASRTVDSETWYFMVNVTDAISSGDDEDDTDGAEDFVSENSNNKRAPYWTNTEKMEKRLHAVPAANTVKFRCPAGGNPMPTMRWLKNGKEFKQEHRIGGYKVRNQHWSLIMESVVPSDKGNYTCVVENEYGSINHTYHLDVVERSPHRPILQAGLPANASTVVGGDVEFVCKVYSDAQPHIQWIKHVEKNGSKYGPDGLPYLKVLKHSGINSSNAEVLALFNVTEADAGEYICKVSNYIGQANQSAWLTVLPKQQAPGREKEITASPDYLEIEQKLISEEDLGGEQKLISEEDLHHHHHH
As to the kind of experiment: Biacore surface plasmon resonance binding kinetics to hFGFR2b.mmh. The note with it: 25° C. As for the experimental part:
The Biacore sensor surface was derivatized by amine coupling with a monoclonal mouse anti-human Fc antibody (REGN2567 or Jackson Cat. […] Human FGFR2b and Human FGFR2c were prepared in-house expressing a C-terminal myc-myc-hexahistidine tag ([…] NO: 57; […] NO: 58). […] Association of hFGFR2b-MMH or hFGFR2c-MMH to each of the captured ADCs and monoclonal antibodies was monitored for 4 minutes. Subsequently, dissociation was monitored for 10 minutes in HBS-EP running buffer. Anti-human Fc surface was regenerated by a brief injection of 20 mM H3PO4. All binding kinetic experiments were performed at 25° C. […] All sensorgrams were double referenced by subtracting buffer injection sensorgram signal from the corresponding analyte sensorgram, thereby removing artifacts caused by dissociation of the antibody from the capture surface. […] [formula]
For orientation: In SPR one partner is held on a chip, and binding of the other changes the refractive index at the surface.

In test [11] the target is T2, hFGFR2c.mmh (Homo sapiens, UniProt P21802).
T2 construct: myc-myc-hexahistidine (MMH) (C); made in house
T2 sequence (P21802 with tags, fused parts or gaps): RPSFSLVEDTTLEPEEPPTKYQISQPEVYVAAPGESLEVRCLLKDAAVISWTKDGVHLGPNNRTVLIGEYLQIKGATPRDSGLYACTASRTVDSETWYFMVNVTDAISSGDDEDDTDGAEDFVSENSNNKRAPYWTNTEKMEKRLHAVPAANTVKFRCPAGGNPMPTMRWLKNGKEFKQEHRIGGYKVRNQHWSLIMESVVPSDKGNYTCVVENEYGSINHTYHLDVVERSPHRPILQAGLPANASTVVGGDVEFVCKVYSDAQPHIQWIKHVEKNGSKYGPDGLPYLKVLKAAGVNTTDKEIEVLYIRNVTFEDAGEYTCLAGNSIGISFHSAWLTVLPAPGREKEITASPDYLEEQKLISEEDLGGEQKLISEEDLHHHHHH
The experiment in a line: Biacore surface plasmon resonance binding kinetics to hFGFR2c.mmh. The note with it: 25° C. As for the experimental part: The equilibrium dissociation constants (KD values) for hFGFR2b.mmh binding to anti-FGFR2 antibodies conjugated with Tubulysin (“tubulysin 1ALP”), Auristatin (“auristatin LP1”), or mc-VC-PAB-NMe-C3-May (“maytansinoid 1ALP”) were determined using a real-time surface plasmon resonance biosensor assay on a Biacore 2000 or a Biacore 4000 instrument. The Biacore sensor surface was derivatized by amine coupling with a monoclonal mouse anti-human Fc antibody (REGN2567 or Jackson Cat. No #109-005-098) to capture anti-FGFR2 ADC and parent unmodified antibodies expressed with human constant regions. Biacore binding studies were performed in HBS-EP running buffer (0.01M HEPES pH 7.4, 0.15M NaCl, 3 mM EDTA, 0.05% v/v Surfactant P20). […] Association of hFGFR2b-MMH or hFGFR2c-MMH to each of the captured ADCs and monoclonal antibodies was monitored for 4 minutes. Subsequently, dissociation was monitored for 10 minutes in HBS-EP running buffer. […] Kinetic association (ka) and dissociation (kd) rate constants were determined by fitting the real-time sensorgrams to a 1:1 binding model using Scrubber 2.0c curve fitting software. […] Binding dissociation equilibrium constants (KD) and dissociative half-lives (t½) were calculated from the kinetic rate constants as: […]

What is called IC50 is the midpoint of a concentration-inhibition curve. As to `CNCCC(=O)N(C)[C@@H](C)C(=O)O[C@H]1CC(=O)N(C)c2cc(cc(OC)c2Cl)C/C(C)=C/C=C/[C@@H](OC)[C@@]2(O)C[C@H](OC(=O)N2)[C@@H](C)[C@@H]2O[C@@]12C` [maytansinoid 1A], the IC50 in test [1] (Homo sapiens, 144 h, IM-9 (non-FGFR2 expressing), 6 days, read-out: IC50) is > 20 nM; in test [2] (Homo sapiens, MFM-223, 144 h, read-out: IC50), > 20 nM; in test [3] (Homo sapiens, 144 h, NCI-H716 (low FGFR2b, high FGFR2c), 6 days, read-out: IC50), > 20 nM; in [4] (Homo sapiens, 144 h, SNU-16 (FGFR2b positive), 6 days, read-out: IC50), > 20 nM; in test [5] (all tested cells, lower end of range, upper end >20 nM), ≥ 4.63 nM. The “Max % Kill” value in test [1] (6 days) was 3.7%; in test [2] (6 days), 18.1%; in [3] (6 days) it was 6.4%; in test [4] (6 days), 9.2%.
`C#CCCCON(C(=O)[C@@H](NC(=O)[C@H]1CCCCN1C)[C@@H](C)CC)[C@H](C[C@@H](OC(C)=O)c1nc(C(=O)N[C@@H](Cc2ccc(N)cc2)CC(C)(C)C(=O)O)cs1)C(C)C` [Tubulysin 1A]: the IC50 was 0.0212 nM in [1] (Homo sapiens, IM-9, 144 h); 0.00376 nM in test [2] (Homo sapiens, MFM-223, 144 h); 0.0743 nM in test [3] (Homo sapiens, NCI-H716, 144 h); 0.00369 nM in test [4] (Homo sapiens, SNU-16, 144 h); 0.00369 to 0.0743 nM in [5]; 0.0184 nM in test [6] (Homo sapiens, SNU-16, 120 h). The IC50 came to 0.0709 nM in [7] (Homo sapiens, NALM-6, 120 h) and 0.166 nM in [8] (120 h). Further, the “Max % Kill” value in test [1] (6 days) is recorded as 94.6%; in test [2] (6 days) it was 89.7%; in [3] (6 days) it was 84.9%; in test [4] (6 days) it was 95.1%; in [6] (SNU-16 monoculture, 5 days) it was 99.3%; in [7] (NALM-6 monoculture, 5 days), 99.9%. The “Max % Kill” value in [8] (SNU-16 + NALM-6 1:1 coculture, 5 days) amounted to 99.5%.

B1: Bemarituzumab: anti-FGFR2 therapy (antibody, chains of the INN, looked up, V domains shown)
VH: QVQLVQSGAEVKKPGSSVKVSCKASGYIFTTYNVHWVRQAPGQGLEWIGSIYPDNGDTSYNQNFKGRATITADKSTSTAYMELSSLRSEDTAVYYCARGDFAYWGQGTLVTVSS
VL: DIQMTQSPSSLSASVGDRVTITCKASQGVSNDVAWYQQKPGKAPKLLIYSASYRYTGVPSRFSGSGSGTDFTFTISSLQPEDIATYYCQQHSTTPYTFGQGTKLEIK
For the molecule B1, the “treatment outcome” value in test [9] is “improvements in early survival and advanced disease”.

B2: Comp1: Comparator (Five Prime Therapeutics): humanized anti-FGFR2b isoform antibody of Catenacci et al. (Bemarituzumab, FPA144) (antibody, chains of the INN, looked up, V domains shown)
VH: QVQLVQSGAEVKKPGSSVKVSCKASGYIFTTYNVHWVRQAPGQGLEWIGSIYPDNGDTSYNQNFKGRATITADKSTSTAYMELSSLRSEDTAVYYCARGDFAYWGQGTLVTVSS
VL: DIQMTQSPSSLSASVGDRVTITCKASQGVSNDVAWYQQKPGKAPKLLIYSASYRYTGVPSRFSGSGSGTDFTFTISSLQPEDIATYYCQQHSTTPYTFGQGTKLEIK
One may read the Kd as a measure of binding affinity in units of concentration. A low value points to tighter binding. Usually EC50 stands for the concentration that produces a half-maximal response. On to B2, for which the values for the Kd in [10] and in [11] were 60.8 nM and > 30 nM, respectively. Also, the “ka” value in [10] was 77400 M⁻¹ s⁻¹. Also, the “kd” value in test [10] turned out to be 0.00471 s⁻¹. In addition, the figures for the “Antigen Bound (RU)” value in test [10] (antibody or ADC captured on anti-human Fc surface) and in test [11] (antibody captured on anti-human Fc surface) were 68.3 RU and 0.6 RU, respectively. Moreover, the “t1/2” value in test [10] (dissociative half-life) is recorded as 2.5 min. The IC50 in test [1] (IM-9 (non-FGFR2 expressing), 6 days, read-out: IC50) was > 20 nM; in test [2] (MFM-223 (FGFR2b positive), 6 days, read-out: IC50), > 20 nM; in test [3] (NCI-H716 (low FGFR2b, high FGFR2c), 6 days, read-out: IC50), > 20 nM; in [4] (SNU-16 (FGFR2b positive), 6 days, read-out: IC50), > 20 nM. The “Max % Kill” value came out at 3.8% in [1] (6 days), 0.8% in [2] (6 days), 9.9% in [3] (6 days) and 0.0% in test [4] (6 days). Also, the EC50 in [5] (all tested lines, unconjugated antibodies) was > 20 nM.
